Results reported in ChEMBL document CHEMBL1147281, “Antimicrobial and cytotoxic activity of rottlerin-type compounds from Hypericum drummondii” (1989).
Converted amounts (≈) assume the structure as drawn.

Legend:
Assay type in all cases: functional
Staphylococcus aureus = experiment: Antimicrobial activity against Staphylococcus aureus ATCC 6538 after 24 hrs by twofold serial dilution method; conditions: ATCC 6538, 24 h
Bacillus subtilis = experiment: Antimicrobial activity against Bacillus subtilis ATCC 6633 after 24 hrs by twofold serial dilution method; conditions: ATCC 6633, 24 h
[1] = system: Mycolicibacterium smegmatis; experiment: Antimicrobial activity against Mycobacterium smegmatis ATCC 607 after 48 hrs by twofold serial dilution method; conditions: ATCC 607, 48 h
P388 = experiment: Cytotoxicity against mouse P388 cells after 48 hrs; conditions: P388, 48 h, read-out: ED50 (the source's name)
KB = experiment: Cytotoxicity against human KB cells after 72 hrs; conditions: read-out: ED50 (the source's name)
[2] = Cytotoxicity against human breast cancer cells after 72 hrs; conditions: Cancer cell lines, read-out: ED50 (the source's name)
[3] = Cytotoxicity against human colon cancer cells after 72 hrs; conditions: Cancer cell lines, read-out: ED50 (the source's name)
[4] = Cytotoxicity against human lung cancer cells after 72 hrs; conditions: Cancer cell lines, read-out: ED50 (the source's name)
[5] = Cytotoxicity against human melanoma cells after 72 hrs; conditions: Melanoma cell, read-out: ED50 (the source's name)
Pseudomonas aeruginosa = experiment: Antimicrobial activity against Pseudomonas aeruginosa after 48 hrs by twofold serial dilution method
Escherichia coli = experiment: Antimicrobial activity against Escherichia coli after 48 hrs by twofold serial dilution method

MIC (Staphylococcus aureus) [µg/mL]	MIC (Bacillus subtilis) [µg/mL]	MIC [1] [µg/mL]	MIC (Pseudomonas aeruginosa) [µg/mL]	MIC (Escherichia coli) [µg/mL]	SMILES	EC50 (P388) [µg/mL]	EC50 (KB) [µg/mL]	EC50 [2] [µg/mL]	EC50 [3] [µg/mL]	EC50 [4] [µg/mL]	EC50 [5] [µg/mL]
1.56 (≈ 3.32 µM)	0.78 (≈ 1.66 µM)	1.56 (≈ 3.32 µM)	> 100	> 100	CCC(=O)C1=C(O)C(C)(C)C(O)=C(Cc2c(O)c3c(c(C(=O)CC)c2O)OC(C)(C)C=C3)C1=O [DRUMMONDIN A]	2.1 (≈ 4.46 µM)	4.5 (≈ 9.56 µM)	3.4 (≈ 7.23 µM)	6.6 (≈ 14 µM)	4.5 (≈ 9.56 µM)	8 (≈ 17 µM)
3.12 (≈ 6.83 µM)	0.39 (≈ 0.854 µM)	1.56 (≈ 3.42 µM)	> 100	> 100	CCC(=O)C1=C(O)C(C)(C)C(O)=C(Cc2c(O)c3c(c(C(C)=O)c2O)OC(C)(C)C=C3)C1=O [DRUMMONDIN B]	1.9 (≈ 4.16 µM)	3.1 (≈ 6.79 µM)		6.3 (≈ 13.8 µM)	7 (≈ 15.3 µM)	5 (≈ 11 µM)
100 (≈ 247 µM)	50 (≈ 124 µM)	100 (≈ 247 µM)	> 100	> 100	CC(=O)C1=C(O)C(C)(C)C(O)=C(CC2=C(O)C(C)(C)C(O)=C(C(C)=O)C2=O)C1=O	> 50	> 50	> 50	> 50	> 50	> 50
0.78 (≈ 1.56 µM)	0.78 (≈ 1.56 µM)	1.56 (≈ 3.13 µM)	> 100	> 100	CC(=O)C1=C(O)C(C)(CC=C(C)C)C(O)=C(Cc2c(O)c(CC=C(C)C)c(O)c(C(C)=O)c2O)C1=O (stereo not drawn) [DRUMMONDIN F]	21 (≈ 42.1 µM)	18 (≈ 36.1 µM)	21 (≈ 42.1 µM)	42 (≈ 84.2 µM)	30 (≈ 60.2 µM)	> 50
3.12 (≈ 7.05 µM)	0.78 (≈ 1.76 µM)	6.25 (≈ 14.1 µM)	> 100	> 100	CC(=O)C1=C(O)C(C)(C)C(O)=C(Cc2c(O)c3c(c(C(C)=O)c2O)OC(C)(C)C=C3)C1=O [DRUMMONDIN C]	2.8 (≈ 6.33 µM)	8.6 (≈ 19.4 µM)	5.1 (≈ 11.5 µM)	11 (≈ 24.9 µM)	8.7 (≈ 19.7 µM)	12 (≈ 27.1 µM)
50 (≈ 116 µM)	12.5 (≈ 28.9 µM)	50 (≈ 116 µM)	> 100	> 100	CCC(=O)C1=C(O)C(C)(C)C(O)=C(CC2=C(O)C(C)(C)C(O)=C(C(=O)CC)C2=O)C1=O	> 50	> 50	> 50	> 50	> 50	> 50

SMILES	MIC (Staphylococcus aureus) [µg/mL]	MIC (Bacillus subtilis) [µg/mL]	MIC [1] [µg/mL]	MIC (Pseudomonas aeruginosa) [µg/mL]	MIC (Escherichia coli) [µg/mL]	EC50 (P388) [µg/mL]	EC50 (KB) [µg/mL]	EC50 [2] [µg/mL]	EC50 [3] [µg/mL]	EC50 [4] [µg/mL]	EC50 [5] [µg/mL]
CN[C@@H]1[C@H](O[C@H]2[C@H](O[C@H]3[C@H](O)[C@@H](O)[C@H](N=C(N)N)[C@@H](O)[C@@H]3N=C(N)N)O[C@@H](C)[C@]2(O)C=O)O[C@@H](CO)[C@H](O)[C@H]1O [STREPTOMYCIN]	6.25 (≈ 10.7 µM)	0.78 (≈ 1.34 µM)	3.12 (≈ 5.36 µM)								
